Test results from patent publication US7309719B1, “Stabilized pharmaceutical preparation of gamma-aminobutyric acid derivatives and process for preparing the same” (Warner Lambert Company, LLC, priority 1998, dated 2007).

Experiments:
[1] = Stability of compacted pregabalin powders, dehydrated condensate content by HPLC (Example 9); format: physicochemical; conditions: solid
Procedure: 3) Sample (v) was prepared by dissolving 1 g of pregabalin crystals and 1.47 g of L-valine in water to make up a total volume of 50 mL. • Samples (t), (u) and (v) prepared as described above were stored under the conditions as defined in the following Table 10 and then a content of the dehydrated condensate formed in each of the aqueous solutions was determined by means of HPLC. In this Example and the following Examples, a content of the dehydrated condensate formed is expressed in terms of % by weight, based on pregabalin.
This Example will illustrate the preparation of a stabilized solid pharmaceutical preparation of pregabalin by the addition of the amino acid to pregabalin according to the dry admixture.
1) 1 g of pregabalin crystals was prepared to powdery Sample (aa) in a compacted state by means of a mortar.
2) 1 g of pregabalin crystals was blended with 10 mg of magnesium stearate by means of a mortar to prepare mixed powdery Sample (ab) in a compacted state.
3) 1 g of pregabalin crystals was blended with 30 mg of talc by means of a mortar to prepare mixed powdery Sample (ac) in a compacted state.
4) 1 g of pregabalin crystals was blended with 30 mg of L-leucine by means of a mortar to prepare mixed powdery Sample (ad) in a compacted state. • Samples (aa), (ab), (ac) and (ad) prepared as described above and untreated pregabalin crystals were stored under the conditions as defined in the following Table 11 and then a content of the dehydrated condensate formed in each of the samples was determined by means of HPLC.

[2] = Dehydration reaction (lactam formation) in a dried state at 105° C.; format: physicochemical; conditions: 105° C. over 2-3 hours
From the text: In other words, in the 4-amino-3-substituted-butanoic acid derivative wherein the substituent at the 3-position thereof has a bulky structure, the dehydration reaction could easily be brought about between the amino group and the carboxyl group within the molecule.

[3] = Stabilizing effect of amino acids on 4-amino-3-substituted-butanoic acid derivatives
[4] = Stability of baclofen granular powders (wet admixture), dehydrated condensate content by HPLC (Example 11); format: physicochemical; conditions: solid
Procedure: In this Example and the following Example, a content of the dehydrated condensate thus formed is expressed in terms of % by weight, based on baclofen.
In this Example, the stabilization of baclofen according to the wet admixture with the amino acid was tested for the following Samples (ag) and (ah) of baclofen.
1) Sample (ag) was prepared by wetting 200 mg of baclofen crystals with 0.1 mL of water, forming granular powders by means of a mortar and then drying.
2) Sample (ah) was prepared by wetting 200 mg of baclofen crystals with 0.1 mL of a 2% aqueous solution of L-isoleucine, forming granular powders by means of a mortar and then drying. • Samples (ag) and (ah) prepared as described above and untreated baclofen crystals were stored under the conditions as defined in the following Table 13 and then a content of the dehydrated condensate formed in each of the samples was determined by means of HPLC.

## CC(C)CC(CN)CC(=O)O (stereo not shown) [Untreated Pregabalin, 5-methyl-3-aminomethyl-hexanoic acid]
[1]; 60° C./2 weeks (sealed)
  content of the dehydrated condensate: 0.001 % by weight, based on pregabalin
[1]; 80° C./1 week (sealed)
  content of the dehydrated condensate: 0.006 % by weight, based on pregabalin
[1]; When initiated
  content of the dehydrated condensate: <0.001 % by weight, based on pregabalin

## NCCCC(=O)O [γ-aminobutyric acid]
[2]
  dehydration reaction (formation of the corresponding lactam form): not brought about

## NCC(O)CC(=O)O (stereo not shown) [4-amino-3-hydroxy-butanoic acid]
[2]
  dehydration reaction (formation of the corresponding lactam form): not brought about

## O=C(O)[C@@H]1C[C@@H](O)CN1 [hydroxyproline]
[3]
  stabilizing effect as stabilizer for a 4-amino-3-substituted-butanoic acid derivative: weak stabilizing effect

## NCC(CC(=O)O)c1ccc(Cl)cc1 (stereo not shown) [Untreated Baclofen]
[4]; 60° C./1 week (sealed)
  content of the dehydrated condensate: 0.36 % by weight, based on baclofen
[4]; 60° C./2 weeks (sealed)
  content of the dehydrated condensate: 0.57 % by weight, based on baclofen
[4]; 60° C./3 weeks (sealed)
  content of the dehydrated condensate: 0.70 % by weight, based on baclofen
[4]; When initiated
  content of the dehydrated condensate: 0.10 % by weight, based on baclofen
